Literature values in patent publication US20260185050A1, “BIOLOGIC INTERFACIAL TISSUE-ENGINEERED SYSTEMS USEFUL AS ARTHROPOD BITEMODEL” (UNIVERSITY OF CENTRAL FLORIDA RESEARCH FOUNDATION, INC., priority 2022, published 2026).

Key:
[1] = C5 epimers of alginate
Aedes aegypti = conditions: selective dose response work, males and females
Aedes albopictus = conditions: selective dose response work, males and females
Culex pipiens = conditions: select experiments

pKa [1] | SMILES | kill performance versus erythritol (Aedes aegypti) | kill performance versus erythritol (Aedes albopictus) | kill performance versus erythritol (Culex pipiens)
3.65 | O=C(O)[C@@H]1O[C@@H](O)[C@@H](O)[C@@H](O)[C@@H]1O [G, α-L-guluronate] | – | – | –
3.38 | O=C(O)[C@H]1O[C@@H](O)[C@@H](O)[C@@H](O)[C@@H]1O [M, β-D-mannuronate] | – | – | –
– | CC(O)CO (centres unmarked) [propylene glycol] | outperform erythritol | outperform erythritol | outperform erythritol
